Tests used:
Type in all cases: in vivo
[1] = tested on: Pseudoperonospora cubensis; assay: Test for Preventive Effect on Cucumber Downy Mildew; design: key: A: No diseased area; B: Diseased area of less than 25%; C: Diseased area of at least 25% but less than 50%; Diseased area of at least 50%; conditions: cucumber seedlings, wettable powder at 500 ppm active ingredient, 7 days after inoculation
Procedure: Test for Preventive Effect on Cucumber Downy Mildew 9 cucumber seeds (variety: Sagami-hanpaku) were sown in each 9 cmx9 cm polyvinyl chloride pot and grown in a greenhouse for 7 days. […] Then, the seedlings were inoculated with Pseudoperonospora cubensis zoosporangia in suspension by spraying and immediately placed in a moist chamber at 22° C. for 24 hours. Thereafter, the seedlings were placed in a greenhouse. 7 days after the inoculation, the total diseased area in each pot was observed and evaluated on the basis of the standards shown in Table 59. [table]

[2] = tested on: Venturia inaequalis; assay: Test for Preventive Effect on Apple Scab; design: key: A: No diseased area; B: Diseased area of less than 25%; C: Diseased area of at least 25% but less than 50%; Diseased area of at least 50%; conditions: 14 days after inoculation; for Evaluation (diseased areas of the upper two of the inoculated leaves): apple seedlings, wettable powder at 500 ppm active ingredient, preventive; for Evaluation (diseased area of the upper two inoculated leaves): apple seedlings (Kogyoku), 500 ppm active ingredient, 20 ml per pot
Procedure: [table] Test for Preventive Effect on Apple Scab 5 apple seeds (variety: Kogyoku) were sown in each 9 cm×9 cm polyvinyl chloride pot and grown in a greenhouse for 20 days. […] Then, the seedlings were inoculated with Venturia inaequalis spores in suspension by spraying and immediately placed in a moist chamber at 22° C. for 48 hours. Thereafter, the seedlings were placed in a greenhouse for development of the disease. 14 days after the inoculation, the diseased areas of the upper two of the inoculated leaves were observed and evaluated on the basis of the standards shown in Table 59.

[3] = tested on: Erysiphe graminis; assay: Test for Preventive Effect on Wheat Powdery Mildew; design: key: A: No diseased area; B: Diseased area of less than 25%; C: Diseased area of at least 25% but less than 50%; Diseased area of at least 50%; conditions: wheat seedlings (Norin-61-go), 500 ppm active ingredient, 10 ml per pot, 10 days after inoculation
Procedure: [table] Test for Preventive Effect on Wheat Powdery Mildew 9 wheat seeds (variety: […] Then, the seedlings were inoculated with […] graminis spores in suspension and placed in a greenhouse at 25 to 30° C. 10 days after the inoculation, the total diseases area of the first leaves in each pot was observed and evaluated on the basis of the standards shown in Table 59. The results are shown in Tables 67 to 71.

[4] = tested on: Botrytis cinerea; assay: Test for Preventive Effect on Cucumber Gray Mold; conditions: cotyledonary cucumber seedlings (Sagami-hanziro), 500 ppm active ingredient, 10 ml per pot, 3 days after inoculation
Procedure: [table] Test for Preventive Effect on Cucumber Gray Mold 9 cucumber seeds (variety: Sagami-hanziro) were sown in each 9 cm−9 cm polyvinyl chloride pot and grown in a greenhouse for 7 days. […] Then, the seedlings were inoculated with milled Botrytis cinerea hyphae in solution by spraying and immediately placed in a moist chamber at 22° C. 3 days after the inoculation, the total diseased area in each pot was observed and evaluated on the basis of the standards shown in Table 59.

Compound	Evaluation (total diseased area in each pot) [1]	Evaluation (diseased areas of the upper two of the inoculated leaves) [2]	Evaluation (total diseased area of the first leaves in each pot) [3]	Evaluation (diseased area of the upper two inoculated leaves) [2]	Evaluation (total diseased area in each pot) [4]
COC(=O)NCc1cccc(-c2ccccc2C(F)(F)F)c1 [1-33]	B (Diseased area of less than 25%)	A	A	–	–
COC(=O)NCc1cccc(-c2cccc(C(F)(F)F)c2)c1 [1-34]	A	A	A	–	–
COC(=O)NCc1cc(C)cc(-c2cccc(C(F)(F)F)c2)c1 [2-98]	B (Diseased area of less than 25%)	A	A	–	–
COC(=O)NCc1cc(-c2ccc(Cl)cc2)ccc1F [2-107]	A	A	A	–	–
COC(=O)NCc1cc(-c2cccc(Cl)c2)ccc1F [2-106]	A	A	A	–	–
COC(=O)NCc1cc(-c2cccc(C)c2)ccc1OC [2-333]	A	–	B (Diseased area of less than 25%)	A	–
COC(=O)NCc1cc(-c2ccc(Cl)cc2)ccc1OC [2-332]	–	–	B (Diseased area of less than 25%)	A	B (Diseased area of less than 25%)
COC(=O)NCc1ccc(OC)c(-c2ccccc2)c1 [2-65]	–	B (Diseased area of less than 25%)	–	–	B (Diseased area of less than 25%)
COC(=O)NCc1cc(C)cc(-c2ccccc2)c1 [2-91]	B (Diseased area of less than 25%)	A	A	–	–
COC(=O)NCc1cccc(-c2cc(Cl)cc(Cl)c2)c1 [1-119]	B (Diseased area of less than 25%)	A	A	–	–
COC(=O)NCc1cccc(-c2ccc(Cl)c(Cl)c2)c1 [1-118, Methyl N-[3-(3,4-dichlorophenyl)benzyl]carbamate]	B (Diseased area of less than 25%)	A	A	–	–
COC(=O)NCc1cccc(-c2ccc(F)cc2)c1 [1-7]	B (Diseased area of less than 25%)	A	A	–	–
CNC(=O)NCc1cccc(-c2ccccc2)c1 [1-253]	B (Diseased area of less than 25%)	–	–	–	–
COC(=O)NC(C)c1cccc(-c2cccc(C(F)(F)F)c2)c1 (racemic) [3-16]	A	–	A	A	–
COC(=O)NCc1cc(-c2ccccc2)ccc1F [2-102]	A	A	A	–	–
COC(=O)NC(C)c1cccc(-c2ccc(F)c(Cl)c2)c1 (racemic) [3-21]	A	–	B (Diseased area of less than 25%)	A	–
COC(=O)NCc1cc(-c2ccc(C)cc2)ccc1F [2-110]	A	A	B (Diseased area of less than 25%)	–	–
COC(=O)N(Cc1cccc(-c2cccc(C)c2)c1)OC [1-266]	B (Diseased area of less than 25%)	A	A	–	–
COC(=O)NC(C)c1cccc(-c2cccc(C)c2)c1 (racemic) [3-6]	A	–	A	A	–
C=CCN(Cc1cccc(-c2ccccc2)c1)C(=O)OC [1-168]	–	A	A	–	–

Compound	Evaluation (total diseased area in each pot) [1]	Evaluation (diseased areas of the upper two of the inoculated leaves) [2]	Evaluation (total diseased area of the first leaves in each pot) [3]	Evaluation (diseased area of the upper two inoculated leaves) [2]	Evaluation (total diseased area in each pot) [4]
COC(=O)NCc1cccc(-c2cccc(OC)c2)c1 [1-41]	A	A	A	–	–
COC(=O)NCc1cccc(-c2cccc(F)c2)c1 [1-6]	–	A	A	–	–
COC(=O)NCc1cccc(-c2ccc(C)c(C)c2)c1 [1-125]	A	A	A	–	–
CCc1cccc(-c2cccc(CNC(=O)OC)c2)c1 [1-13]	–	A	A	–	–
COC(=O)NCc1cc(-c2cccc(C(C)C)c2)ccc1F [2-113]	B (Diseased area of less than 25%)	A	A	–	–
COC(=O)NCc1cc(-c2cccc(C)c2)ccc1F [2-109]	A	A	A	–	–
COC(=O)NCc1cccc(-c2ccccc2Cl)c1 [1-2]	–	A	A	–	–
COC(=O)NCc1cccc(-c2ccc(F)c(F)c2)c1 [1-120]	–	A	A	–	–
COCN(Cc1cccc(-c2ccc(F)cc2)c1)C(=O)OC [1-201]	–	A	A	–	–
COC(=O)NCc1cccc(-c2cccc(Cl)c2)c1 [1-3]	A	A	A	–	–
COC(=O)N(Cc1cccc(-c2cccc(C(F)(F)F)c2)c1)OC [1-277]	–	A	A	–	–
COC(=O)NCc1cccc(-c2cccc(C(C)C)c2)c1 [1-17]	–	A	B (Diseased area of less than 25%)	–	–
COC(=O)NCc1ccc(F)c(-c2ccc(Cl)cc2)c1 [2-21]	–	A	B (Diseased area of less than 25%)	–	–
COC(=O)NCc1cc(-c2cccc(C(F)(F)F)c2)ccc1OC(F)F [2-365]	–	–	B (Diseased area of less than 25%)	A	–
COC(=O)NC(C)c1cccc(-c2ccccc2)c1 (racemic) [3-1]	A	–	B (Diseased area of less than 25%)	A	–
COCN(Cc1cccc(-c2ccccc2Cl)c1)C(=O)OC [1-202]	–	A	A	–	–
COC(=O)NCc1cccc(-c2cccc([N+](=O)[O-])c2)c1 [1-103]	B (Diseased area of less than 25%)	A	–	–	–
COC(=O)NCc1cc(-c2ccc(F)c(F)c2)ccc1F [2-412]	–	–	A	A	–
COC(=O)NCc1ccc(F)c(-c2ccccc2)c1 [2-17]	–	A	B (Diseased area of less than 25%)	–	–

— US6620961B1, “Biarylalkylenecarbamic acid derivatives and bacteriocides for agricultural and horticultural use” (Kumiai Chemical Industry Co., Ltd., priority 1997, dated 2003)
